The values below are quoted from earlier work in article PMC6269737, “Effect of Honokiol on Cytochrome P450 and UDP-Glucuronosyltransferase Enzyme Activities in Human Liver Microsomes” (Molecules, 2013).

One series deals with T1, CYP2C8 (Homo sapiens, UniProt P10632).
T1 sequence (P10632 1-490): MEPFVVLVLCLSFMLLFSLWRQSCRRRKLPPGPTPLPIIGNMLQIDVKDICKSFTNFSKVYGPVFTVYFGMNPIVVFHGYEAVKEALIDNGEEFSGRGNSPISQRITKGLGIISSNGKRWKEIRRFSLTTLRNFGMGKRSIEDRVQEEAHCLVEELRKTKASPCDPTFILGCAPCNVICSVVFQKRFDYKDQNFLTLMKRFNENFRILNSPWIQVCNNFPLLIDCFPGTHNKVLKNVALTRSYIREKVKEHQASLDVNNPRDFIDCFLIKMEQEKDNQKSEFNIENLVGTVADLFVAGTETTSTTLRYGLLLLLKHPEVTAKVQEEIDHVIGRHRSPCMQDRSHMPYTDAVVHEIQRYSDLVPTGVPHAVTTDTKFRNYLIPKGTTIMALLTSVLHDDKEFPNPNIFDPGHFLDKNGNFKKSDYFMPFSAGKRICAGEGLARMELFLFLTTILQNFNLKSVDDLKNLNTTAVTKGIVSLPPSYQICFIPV
Conditions: cited from earlier work.

The next series concerns the target T2, UGT1A9 (Homo sapiens, UniProt O60656).
T2 sequence (O60656 26-530): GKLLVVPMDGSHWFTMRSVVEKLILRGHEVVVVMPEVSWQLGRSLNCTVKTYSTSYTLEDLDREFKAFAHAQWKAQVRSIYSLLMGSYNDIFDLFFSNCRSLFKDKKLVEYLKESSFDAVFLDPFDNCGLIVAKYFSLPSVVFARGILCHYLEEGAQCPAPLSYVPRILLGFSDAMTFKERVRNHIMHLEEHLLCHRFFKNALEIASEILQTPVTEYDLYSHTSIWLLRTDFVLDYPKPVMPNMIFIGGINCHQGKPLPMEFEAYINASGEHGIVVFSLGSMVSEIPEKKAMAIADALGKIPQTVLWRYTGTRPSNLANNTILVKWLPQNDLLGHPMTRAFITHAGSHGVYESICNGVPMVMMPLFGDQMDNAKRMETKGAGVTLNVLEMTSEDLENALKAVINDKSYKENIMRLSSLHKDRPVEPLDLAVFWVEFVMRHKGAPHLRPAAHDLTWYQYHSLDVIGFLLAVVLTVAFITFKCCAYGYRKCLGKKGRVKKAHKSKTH
Set-up: method as in PMID 21245288. The conditions noted are these: selective UGT1A9 inhibitor; cited from earlier work.

The target of a further series is CYP2C19 (Homo sapiens, UniProt P33261). Set-up: method as in PMID 23446989. The conditions noted are these: inhibitory effect towards CYP2C19; cited from earlier work.
For a further series, the target named is CYP2C9 (Homo sapiens, UniProt P11712). The conditions noted are these: inhibitory effect towards CYP2C9; cited from earlier work.
Another series addresses T3, CYP2B6 (Homo sapiens, UniProt P20813).
T3 sequence (P20813 1-491): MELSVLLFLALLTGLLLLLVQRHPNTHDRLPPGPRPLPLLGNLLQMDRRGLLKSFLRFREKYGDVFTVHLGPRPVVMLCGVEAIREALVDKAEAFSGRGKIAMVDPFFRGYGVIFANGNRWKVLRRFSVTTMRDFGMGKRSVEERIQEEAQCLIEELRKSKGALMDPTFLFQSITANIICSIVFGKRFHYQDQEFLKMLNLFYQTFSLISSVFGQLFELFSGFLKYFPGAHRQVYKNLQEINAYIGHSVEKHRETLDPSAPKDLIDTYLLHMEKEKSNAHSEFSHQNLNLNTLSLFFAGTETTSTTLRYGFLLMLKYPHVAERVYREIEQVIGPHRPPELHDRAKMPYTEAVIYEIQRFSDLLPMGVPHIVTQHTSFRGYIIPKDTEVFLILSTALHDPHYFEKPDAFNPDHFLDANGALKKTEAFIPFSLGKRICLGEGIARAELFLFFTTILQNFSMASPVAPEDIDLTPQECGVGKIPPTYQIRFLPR
Also noted: method as in PMID 23446989. The conditions noted are these: inhibitory effect towards CYP2B6; cited from earlier work.

The target in another series is T4, CYP1A2 (Homo sapiens, UniProt P05177).
T4 sequence (P05177 1-516): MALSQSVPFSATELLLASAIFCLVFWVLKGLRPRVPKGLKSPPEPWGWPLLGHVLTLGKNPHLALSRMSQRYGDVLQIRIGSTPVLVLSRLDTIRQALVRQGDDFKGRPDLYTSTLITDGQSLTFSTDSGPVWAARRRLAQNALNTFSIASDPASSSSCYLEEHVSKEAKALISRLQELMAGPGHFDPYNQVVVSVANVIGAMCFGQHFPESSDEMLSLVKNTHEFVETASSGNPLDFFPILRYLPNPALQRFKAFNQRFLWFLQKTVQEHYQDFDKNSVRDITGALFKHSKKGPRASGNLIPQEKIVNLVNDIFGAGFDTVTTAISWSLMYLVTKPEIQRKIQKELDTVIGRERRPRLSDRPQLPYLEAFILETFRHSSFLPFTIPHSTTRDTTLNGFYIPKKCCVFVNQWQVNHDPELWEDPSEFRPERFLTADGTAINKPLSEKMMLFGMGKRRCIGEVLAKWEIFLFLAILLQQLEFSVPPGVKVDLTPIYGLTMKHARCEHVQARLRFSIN
Also noted: method as in PMID 23446989. The conditions noted are these: inhibitory effect towards CYP1A2; cited from earlier work.

pIC50, pKi: −log10 of the molar value.

Chain of CYP2C19 (P33261 whole entry): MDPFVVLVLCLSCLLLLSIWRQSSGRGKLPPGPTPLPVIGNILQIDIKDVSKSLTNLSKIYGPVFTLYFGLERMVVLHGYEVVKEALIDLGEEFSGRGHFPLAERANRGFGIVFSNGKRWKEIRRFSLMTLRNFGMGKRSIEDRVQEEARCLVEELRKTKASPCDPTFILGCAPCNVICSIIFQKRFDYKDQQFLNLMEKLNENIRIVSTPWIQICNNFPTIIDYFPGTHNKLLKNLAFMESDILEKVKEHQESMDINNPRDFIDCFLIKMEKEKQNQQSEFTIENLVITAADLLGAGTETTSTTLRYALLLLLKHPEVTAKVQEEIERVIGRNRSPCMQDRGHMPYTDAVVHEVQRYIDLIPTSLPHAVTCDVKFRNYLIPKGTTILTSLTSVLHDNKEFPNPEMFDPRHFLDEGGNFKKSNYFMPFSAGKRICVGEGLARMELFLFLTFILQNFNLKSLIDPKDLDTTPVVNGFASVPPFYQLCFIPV
Chain of CYP2C9 (P11712 whole entry): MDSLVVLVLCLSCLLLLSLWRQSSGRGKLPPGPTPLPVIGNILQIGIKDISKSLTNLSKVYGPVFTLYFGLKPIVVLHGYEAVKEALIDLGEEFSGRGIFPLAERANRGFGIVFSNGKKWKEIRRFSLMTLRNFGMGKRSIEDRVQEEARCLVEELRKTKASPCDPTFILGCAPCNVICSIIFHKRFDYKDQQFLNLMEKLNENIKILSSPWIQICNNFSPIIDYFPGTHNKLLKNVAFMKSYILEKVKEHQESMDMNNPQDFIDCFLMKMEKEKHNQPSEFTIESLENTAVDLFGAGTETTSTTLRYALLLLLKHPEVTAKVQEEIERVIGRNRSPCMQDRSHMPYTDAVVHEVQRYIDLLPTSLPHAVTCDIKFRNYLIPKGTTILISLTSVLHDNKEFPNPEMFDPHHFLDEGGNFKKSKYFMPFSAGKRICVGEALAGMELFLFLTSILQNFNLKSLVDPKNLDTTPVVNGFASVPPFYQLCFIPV

By pKi is commonly meant −log10 of the Ki, conventionally taken in molar units. In the case of `Cc1ccc(C)c(OCCCC(C)(C)C(=O)O[C@@H]2O[C@H](C(=O)O)[C@@H](O)[C@H](O)[C@H]2O)c1` [gemfibrozil glucuronide], the pKi at CYP2C8 (selective CYP2C8 inhibitor) is 4.28 to 4.70.
Turning to `O=C(O)c1cccnc1Nc1cccc(C(F)(F)F)c1` [niflumic acid], at UGT1A9, the negative-log Ki (pKi) was 6.40 to 7.00.
By pIC50 is commonly meant −log10 of the IC50, conventionally taken in molar units. With `C=CCc1ccc(Oc2cc(CC=C)cc(O)c2O)cc1` [obovatol], the negative-log IC50 (pIC50) is 6.10 on CYP2C19; 5.48 at CYP2C9; 4.86 on CYP2B6; 5.36 on CYP1A2; 4.95 at CYP2C8 (inhibitory effect towards CYP2C8).
